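Protocol summary: plate cells (96-well), add compound at 5 concentrations, incubate 48 h, interpolate endpoints linearly. The concentration for full growth arrest is given as TGI.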
Experiments:
Assay in all cases: inhibition of tumour cell growth, NCI panel, 48 h
SK-MEL-28 melanoma = system: SK-MEL-28 melanoma
MDA-MB-435 = system: MDA-MB-435
ACHN renal = system: ACHN renal
IGROV1 ovarian = system: IGROV1 ovarian
SK-MEL-5 melanoma = system: SK-MEL-5 melanoma
SF-539 CNS = system: SF-539 CNS
K-562 leukemia = system: K-562 leukemia
SN12C renal = system: SN12C renal
NCI-H23 lung = system: NCI-H23 lung
OVCAR-3 ovarian = system: OVCAR-3 ovarian
MALME-3M melanoma = system: MALME-3M melanoma
T-47D breast = system: T-47D breast
DU-145 prostate = system: DU-145 prostate
COLO 205 colon = system: COLO 205 colon
OVCAR-8 ovarian = system: OVCAR-8 ovarian
SW-620 colon = system: SW-620 colon
SF-268 CNS = system: SF-268 CNS
MDA-N = system: MDA-N
HCC-2998 colon = system: HCC-2998 colon
MOLT-4 leukemia = system: MOLT-4 leukemia
SNB-19 CNS = system: SNB-19 CNS
UACC-257 melanoma = system: UACC-257 melanoma
A549 NSCLC = system: A549 NSCLC
MCF7 breast = system: MCF7 breast
A498 renal = system: A498 renal
SF-295 CNS = system: SF-295 CNS
HT29 colon = system: HT29 colon
SNB-75 CNS = system: SNB-75 CNS
NCI-H226 lung = system: NCI-H226 lung
CCRF-CEM leukemia = system: CCRF-CEM leukemia
RPMI-8226 leukemia = system: RPMI-8226 leukemia
CAKI-1 renal = system: CAKI-1 renal
SK-OV-3 ovarian = system: SK-OV-3 ovarian
EKVX NSCLC = system: EKVX NSCLC
M14 melanoma = system: M14 melanoma
HCT-116 colon = system: HCT-116 colon
MDA-MB-231 breast = system: MDA-MB-231 breast
UO-31 renal = system: UO-31 renal
OVCAR-4 ovarian = system: OVCAR-4 ovarian
HS 578T breast = system: HS 578T breast
NCI/ADR-RES ovarian = system: NCI/ADR-RES ovarian
HOP-62 NSCLC = system: HOP-62 NSCLC
NCI-H522 lung = system: NCI-H522 lung
HCT-15 colon = system: HCT-15 colon
BT-549 breast = system: BT-549 breast
HOP-92 NSCLC = system: HOP-92 NSCLC
U251 CNS = system: U251 CNS
RXF 393 renal = system: RXF 393 renal
786-0 renal = system: 786-0 renal
PC-3 prostate = system: PC-3 prostate
KM12 colon = system: KM12 colon
UACC-62 melanoma = system: UACC-62 melanoma
SK-MEL-2 melanoma = system: SK-MEL-2 melanoma
OVCAR-5 ovarian = system: OVCAR-5 ovarian
SR leukemia = system: SR leukemia
TK-10 renal = system: TK-10 renal
NCI-H460 lung = system: NCI-H460 lung
HL-60(TB) leukemia = system: HL-60(TB) leukemia

With `CC(C)(Br)C(Br)CCC(C)(Br)C(Br)CO` (stereo unspecified) the TGI (SK-MEL-28 melanoma) was over 10 µM, the TGI (MDA-MB-435) was over 10 µM and the TGI (ACHN renal) was over 10 µM. It also gave a TGI (IGROV1 ovarian) of over 10 µM, a TGI (SK-MEL-5 melanoma) of over 10 µM and a TGI (SF-539 CNS) of over 10 µM. The TGI (K-562 leukemia) was over 10 µM, the TGI (SN12C renal) was over 10 µM and the TGI (NCI-H23 lung) was over 10 µM. For the same molecule, the TGI (OVCAR-3 ovarian) was over 10 µM, the TGI (MALME-3M melanoma) was over 10 µM and the TGI (T-47D breast) was over 10 µM. For the same molecule, the TGI (DU-145 prostate) was over 10 µM, the TGI (COLO 205 colon) was over 10 µM and the TGI (OVCAR-8 ovarian) was over 10 µM. The TGI (SW-620 colon) was over 10 µM, the TGI (SF-268 CNS) was over 10 µM and the TGI (MDA-N) was over 10 µM. It also gave a TGI (HCC-2998 colon) of over 10 µM, a TGI (MOLT-4 leukemia) of over 10 µM and a TGI (SNB-19 CNS) of over 10 µM. It also gave a TGI (UACC-257 melanoma) of over 10 µM, a TGI (A549 NSCLC) of over 10 µM and a TGI (MCF7 breast) of over 10 µM. The TGI (A498 renal) was over 10 µM, the TGI (SF-295 CNS) was over 10 µM and the TGI (HT29 colon) was over 10 µM. It also gave a TGI (SNB-75 CNS) of over 10 µM, a TGI (NCI-H226 lung) of over 10 µM and a TGI (CCRF-CEM leukemia) of over 10 µM. It also gave a TGI (RPMI-8226 leukemia) of over 10 µM, a TGI (CAKI-1 renal) of over 10 µM and a TGI (SK-OV-3 ovarian) of over 10 µM. It also gave a TGI (EKVX NSCLC) of over 10 µM, a TGI (M14 melanoma) of over 10 µM and a TGI (HCT-116 colon) of over 10 µM. For the same molecule, the TGI (MDA-MB-231 breast) was over 10 µM, the TGI (UO-31 renal) was over 10 µM and the TGI (OVCAR-4 ovarian) was over 10 µM. For the same molecule, the TGI (HS 578T breast) was over 10 µM, the TGI (NCI/ADR-RES ovarian) was over 10 µM and the TGI (HOP-62 NSCLC) was over 10 µM. It also gave a TGI (NCI-H522 lung) of over 10 µM, a TGI (HCT-15 colon) of over 10 µM and a TGI (BT-549 breast) of over 10 µM. It also gave a TGI (HOP-92 NSCLC) of over 10 µM, a TGI (U251 CNS) of over 10 µM and a TGI (RXF 393 renal) of over 10 µM. The TGI (786-0 renal) was over 10 µM and the TGI (PC-3 prostate) was over 10 µM.
`CCOC(=O)c1c(N)sc2c1C(C(=O)OCC)CC2` (stereo unspecified) was tested, and the TGI (SK-MEL-28 melanoma) was over 100 µM, the TGI (ACHN renal) was over 100 µM and the TGI (IGROV1 ovarian) was over 100 µM. It also gave a TGI (SK-MEL-5 melanoma) of over 100 µM, a TGI (KM12 colon) of over 100 µM and a TGI (K-562 leukemia) of over 100 µM. For the same molecule, the TGI (SN12C renal) was over 100 µM, the TGI (NCI-H23 lung) was over 100 µM and the TGI (MALME-3M melanoma) was over 100 µM. For the same molecule, the TGI (UACC-62 melanoma) was over 100 µM, the TGI (SK-MEL-2 melanoma) was over 100 µM and the TGI (T-47D breast) was over 100 µM. The TGI (COLO 205 colon) was over 100 µM, the TGI (OVCAR-8 ovarian) was over 100 µM and the TGI (SW-620 colon) was over 100 µM. The TGI (OVCAR-5 ovarian) was over 100 µM, the TGI (MDA-N) was over 100 µM and the TGI (HCC-2998 colon) was over 100 µM. The TGI (MOLT-4 leukemia) was over 100 µM, the TGI (SNB-19 CNS) was over 100 µM and the TGI (UACC-257 melanoma) was over 100 µM. For the same molecule, the TGI (SR leukemia) was over 100 µM, the TGI (A549 NSCLC) was over 100 µM and the TGI (MCF7 breast) was over 100 µM. The TGI (A498 renal) was 82.1 µM, the TGI (TK-10 renal) was over 100 µM and the TGI (HT29 colon) was over 100 µM. The TGI (SNB-75 CNS) was over 100 µM, the TGI (NCI-H226 lung) was over 100 µM and the TGI (NCI-H460 lung) was over 100 µM. For the same molecule, the TGI (RPMI-8226 leukemia) was over 100 µM, the TGI (HL-60(TB) leukemia) was over 100 µM and the TGI (EKVX NSCLC) was over 100 µM. It also gave a TGI (M14 melanoma) of over 100 µM, a TGI (HCT-116 colon) of over 100 µM and a TGI (MDA-MB-231 breast) of over 100 µM. For the same molecule, the TGI (UO-31 renal) was over 100 µM, the TGI (HS 578T breast) was over 100 µM and the TGI (HOP-62 NSCLC) was over 100 µM. It also gave a TGI (HCT-15 colon) of over 100 µM, a TGI (BT-549 breast) of over 100 µM and a TGI (HOP-92 NSCLC) of over 100 µM. The TGI (U251 CNS) was over 100 µM, the TGI (RXF 393 renal) was over 100 µM and the TGI (786-0 renal) was over 100 µM. The TGI (PC-3 prostate) was over 100 µM.

Source: PubChem BioAssay (NCI)
